Legend:
Format in all cases: cell-based
[1] = molecular target: T1, recombinant TASK-1 (Homo sapiens (Human), UniProt O14649); experiment: Two-electrode voltage clamp analysis of human TASK-1 channel expressed in Xenopus laevis oocytes; details: TASK-1 IC50, human TASK-1 in Xenopus laevis oocytes
Description: (§1) Xenopus laevis oocytes were selected as described elsewhere by way of illustration [Decher et al., FEBS Lett. 492, 84-89 (2001)]. […] For the electrophysiological analysis of the channel proteins expressed in the oocytes, the two-electrode voltage clamp technique [Stühmer, Methods Enzymol. 207, 319-339 (1992)] was used. The measurements were conducted as described [Decher et al., FEBS Lett. 492, 84-89 (2001)] at room temperature (21-22° C.) using a Turbo TEC 10CD amplifier (NPI), recorded at 2 kHz and filtered with 0.4 kHz. Substance administration was performed using a gravitation-driven perfusion system. Here, the oocyte is located in a measuring chamber and exposed to the solvent stream of 10 ml/min. The level in the measuring chamber is monitored and regulated by sucking off the solution using a peristaltic pump.

[2] = molecular target: T2, recombinant TASK-3 (Homo sapiens (Human), UniProt Q9NPC2); experiment: Two-electrode voltage clamp analysis of human TASK-3 channel expressed in Xenopus laevis oocytes; details: TASK-3 IC50, human TASK-3 in Xenopus laevis oocytes
T2 sequence (Q9NPC2 whole entry): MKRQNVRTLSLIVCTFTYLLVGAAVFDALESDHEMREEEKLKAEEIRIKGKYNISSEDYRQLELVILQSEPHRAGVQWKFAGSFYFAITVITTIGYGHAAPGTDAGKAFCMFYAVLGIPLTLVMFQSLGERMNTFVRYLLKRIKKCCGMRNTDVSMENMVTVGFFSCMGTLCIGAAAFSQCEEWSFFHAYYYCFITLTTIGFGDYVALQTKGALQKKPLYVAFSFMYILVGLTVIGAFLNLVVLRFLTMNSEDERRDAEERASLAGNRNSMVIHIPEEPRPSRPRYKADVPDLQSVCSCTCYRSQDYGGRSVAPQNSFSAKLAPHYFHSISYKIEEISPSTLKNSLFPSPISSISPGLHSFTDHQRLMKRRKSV
Description: as §1

[3] = molecular target: T1, recombinant TASK-1; experiment: Inhibition of recombinant TASK-1 in stably transfected CHO cells (KCl-induced depolarization, voltage-sensitive dye, FLIPR); details: depolarization induced by 40 mM potassium chloride, some mean values from multiple determinations
Description: (§2) The compounds of the invention were tested here with administration of 40 mM of potassium chloride in the presence of a voltage-sensitive dye using the method described in detail in the following references [Whiteaker et al., Validation of FLIPR membrane potential dye for high-throughput screening of potassium channel modulators, J. Biomol. Screen. 6 (5), 305-312 (2001); Molecular Devices FLIPR Application Note: Measuring membrane potential using the FLIPR® membrane potential assay kit on Fluorometric Imaging Plate Reader (FLIPR®) systems, http://www.moleculardevices.com/reagents-supplies/assay-kits/ion-channels/flipr-membrane-potential-assay-kits]. The activity of the test substances was determined as their ability to inhibit a depolarization induced in the recombinant cells by 40 mM potassium chloride. The concentration which can block half of this depolarization is referred to as IC50.

[4] = molecular target: T2, recombinant TASK-3; experiment: Inhibition of recombinant TASK-3 in stably transfected CHO cells (KCl-induced depolarization, voltage-sensitive dye, FLIPR); details: depolarization induced by 40 mM potassium chloride, some mean values from multiple determinations
Description: as §2

T1 sequence (O14649 whole entry, the tested form may be a part): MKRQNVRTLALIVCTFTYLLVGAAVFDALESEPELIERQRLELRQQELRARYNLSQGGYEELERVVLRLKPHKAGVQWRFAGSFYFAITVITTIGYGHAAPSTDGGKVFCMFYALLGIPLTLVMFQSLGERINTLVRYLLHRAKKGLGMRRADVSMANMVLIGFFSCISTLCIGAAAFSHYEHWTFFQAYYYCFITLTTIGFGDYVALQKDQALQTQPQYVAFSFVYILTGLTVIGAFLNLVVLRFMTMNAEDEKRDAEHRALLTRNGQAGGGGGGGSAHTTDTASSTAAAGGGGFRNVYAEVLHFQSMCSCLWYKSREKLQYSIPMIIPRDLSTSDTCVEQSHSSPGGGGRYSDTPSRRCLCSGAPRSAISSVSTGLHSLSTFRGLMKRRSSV

Question: How did the IC50 [1] turn out when COc1ccc(F)c(C(=O)N2C3CCC2CN(Cc2c(-c4ccc(Cl)cn4)nc4ccccn24)CC3)n1 (single isomer, unassigned) [Example 15, [3-{[2-(5-Chloropyridin-2-yl)imidazo[1,2-a]pyridin-3-yl]methyl}-3,9-diazabicyclo[4.2.1]non-9-yl](3-fluoro-6-methoxypyridin-2-yl)methanone] was run?
Answer: 7.54 ± 1.4 nM

Question: And the IC50 [2]?
Answer: 15.5 ± 1.5 nM

Question: And the IC50 [3]?
Answer: 250 nM

Question: What about the IC50 [4] of the same compound?
Answer: 7.3 nM

Question: Which results are given for COc1ccc(F)c(C(=O)N2C3CCN(Cc4c(-c5ccc(Cl)cc5)nc5ccccn45)CC2COC3)n1 (single isomer, unassigned) [Example 11]?
Answer: IC50 [1]: 11.4 ± 2.2 nM; IC50 [2]: 4.8 ± 0.4 nM; IC50 [3]: 113 nM; IC50 [4]: 1.1 nM

Question: What does the source list for COc1ccc(F)c(C(=O)N2C3CCN(Cc4c(-c5ccc(Cl)cc5)nc5ccccn45)CC2COC3)n1 (single isomer, unassigned) [Example 12]?
Answer: IC50 [1]: 17.6 ± 2.2 nM; IC50 [2]: 13 ± 0.9 nM; IC50 [3]: 60.5 nM; IC50 [4]: 2.5 nM

Question: Which IC50 [3] does the source give for COc1cccc(C(=O)N2C3CCC2CN(Cc2c(-c4ccc(Cl)cc4)nc4ncccn24)CC3)n1 (single isomer, unassigned) [Example 87, [3-{[2-(4-chlorophenyl)imidazo[1,2-a]pyrimidin-3-yl]methyl}-3,9-diazabicyclo[4.2.1]non-9-yl](6-methoxypyridin-2-yl)methanone] here?
Answer: 1600 nM

Question: What about the IC50 [4] of the same compound?
Answer: 210 nM

Question: Which IC50 [3] does the source give for O=C(c1ccccc1F)N1C2CCC1CN(Cc1c(-c3ccc(Cl)cc3)nc3ncccn13)CC2 (single isomer, unassigned) [Example 80] here?
Answer: 4500 nM

Question: And the IC50 [4]?
Answer: 93 nM

Question: Which IC50 [3] does the source give for COc1cccc(C(=O)N2C3CCC2CN(Cc2c(-c4ccc(C(C)C)cc4)nc4ncccn24)CC3)n1 (stereo not drawn) [Example 104] here?
Answer: 600 nM

Question: What about the IC50 [4] of the same compound?
Answer: 31 nM

Question: What does the source list for COc1cccc(C(=O)N2C3CCN(Cc4c(-c5ccc(Cl)cc5)nc5ncccn45)CC2COC3)n1 (racemic) [Example 75, [3-{[2-(4-chlorophenyl)imidazo[1,2-a]pyrimidin-3-yl]methyl}-8-oxa-3,10-diazabicyclo[4.3.1]dec-10-yl](6-methoxypyridin-2-yl)methanone]?
Answer: IC50 [3]: 2300 nM; IC50 [4]: 77 nM

Question: Which IC50 [3] does the source give for COc1cccc(C(=O)N2CCC3CCC2CN3Cc2c(-c3ccc(C(C)C)cc3)nc3ncccn23)n1 (stereo not drawn) [Example 48] here?
Answer: 12000 nM

Question: What about the IC50 [4] of the same compound?
Answer: 430 nM

Question: Which results are given for O=C(c1cccc(OC(F)F)n1)N1CCC2CCC1CN2Cc1c(-c2ccc(Cl)cc2)nc2ncccn12 (stereo not drawn) [Example 68]?
Answer: IC50 [3]: 230 nM; IC50 [4]: 31 nM

Source: patent US11208422B2, “Substituted bridged diazepane derivatives and use thereof as TASK-1 and TASK-3 inhibitors” (Bayer Pharma Aktiengesellschaft, priority 2017, dated 2021)
